Earlier results in publication PMC5156321 (Natural product communications, 2014).
Where two headings read alike, the source gives them in different places.

Tests used:
caspase-1 = settings: for Caspase-1 IC100: tested at 100 μg/mL and 10 μg/mL; for caspase-1 % inhibition: test concentration 100 μg,mL; for IC50: read-out: Caspase-1 IC50
[1] = test system: matrix metalloproteinase-3 (MMP-3); settings: for IC50: read-out: MMP-3 IC50
[2] = test system: IL-1β production in induced THP-1 cells; settings: for inhibition of cytokine production in induced inflammasome assay: at the nm level, Figure 11; for IC50: read-out: IL-1β production (IC50), LPS and multi-walled carbon nanotubes-induced THP-1 cells
leukemia RPMI-8226 = settings: NCI-DTP 60
leukemia SR = settings: NCI-DTP 60
[3] = test system: non-small cell lung cancer NCI-H522; settings: NCI-DTP 60
[4] = test system: non-small cell lung cancer NCI-H460; settings: NCI-DTP 60
leukemia HL-60 = settings: NCI-DTP 60
leukemia CCRFCEM = settings: NCI-DTP 60
all leukemia cell lines = settings: NCI-DTP 60
HeLaS3 [5] = settings: read-out: IC50 (μM) Nuclei Count Proliferation HeLaS3; tested at MSKCC
UMUC3 [6] = settings: read-out: IC50 (μM) Alamar Blue Viability UMUC3; tested at MSKCC
UMUC3 [7] = settings: read-out: IC50 (μM) Nuclei Count Proliferation UMUC3; tested at MSKCC
HeLaS3 [8] = settings: read-out: IC50 (μM) Alamar Blue Viability HeLaS3; tested at MSKCC
H3255 = settings: read-out: IC50 (μM) Nuclei Count Proliferation H3255; tested at MSKCC
Y79 = settings: read-out: IC50 (μM) Nuclei Count Proliferation Y79; tested at MSKCC
[9] = test concentrations 100 μg/mL and 10 μg/mL

COC(=O)[C@]12C(=O)[C@H](C)O[C@@H]3OC(=O)[C@](C)(C[C@H]4[C@]5(CO5)C5=CC(=O)OC(C)(C)C5=CC[C@@]41C)[C@@H]32 [B (18), berkeleyacetal B]
caspase-1 inhibition, concentration range (caspase-1): mM range | MMP-3 inhibition, concentration range [1]: mM range

CC(=O)N[C@H](C(=O)O[C@H]1CCC(C)(C)[C@@H]2CC=C3C(=O)OC[C@]3(O)[C@@]12C)C(C)C [B (32), Berkedrimane B]
caspase-1 IC50 (caspase-1): 50 µg/mL | inhibition of cytokine production in induced inflammasome assay [2]: completely inhibited

C/C=C/C1=CC2=CC(=O)[C@@H](C)[C@H](O)[C@H]2CO1 [Berkazaphilone A (25), Berkazaphilone A]
Caspase-1 IC100 (caspase-1): Caspase-1: 100 μg/mL

C/C=C/C1=CC2=CC(=O)[C@](C)(OC(=O)c3c(C)cc(O)cc3O)[C@H](O)[C@H]2CO1 [Berkazaphilone B (26), berkazaphilone B]
Caspase-1 IC100 (caspase-1): Caspase-1: 10 μg/mL | leukemia RPMI-8226 log10 GI50 (leukemia RPMI-8226): leukemia RPMI-8226: log10 GI50 (−5.67) | concentration completely inhibitory to IL-1β production in THP-1 cells [2]: 2.0 µg/mL

C/C=C/C1=CC2=CC(=O)[C@](C)(O)[C@H](OC(=O)c3c(C)cc(O)cc3O)[C@H]2CO1 [Berkazaphilone C (27), berkazaphilone C]
leukemia SR log10 GI50 (leukemia SR): leukemia SR: log10 GI50 (−6.42) | Caspase-1 IC100 (caspase-1): Caspase-1: 10 μg/mL | concentration completely inhibitory to IL-1β production in THP-1 cells [2]: 20 µg/mL | inhibition of cytokine production in induced inflammasome assay [2]: completely inhibited

CC(C)C[C@H]1C[C@H]([C@@H](O)CC(=O)Cc2ccccc2)C(=O)N1 [Berkeleyamide A (21), Berkeleyamide A]
NCI-H522 log10 GI100 [3]: log10 GI100: 10 μM;

C=C1[C@@]2(C)C[C@H]3C(C)=C4CC(=O)OC(C)(C)C4=CC[C@]3(C)[C@]1(C(=O)OC)C(=O)[C@@](C)(O)C2=O [Berkeleydione (8), berkeleydione]
NCI-H460 log10 GI50 [4]: NCI-H460: log10 GI50 −6.40. | activity towards NCI-H460 [4]: selective activity | caspase-1 % inhibition (caspase-1): 89% | IC50 [1]: 22000 nM | IC50 [2]: 4.4 µM

C=C1[C@@]2(C)C[C@H]3[C@]4(C)CC[C@@H](O)C(C)(C)[C@H]4CC[C@]3(C)[C@]1(C(=O)OC)C(=O)[C@@](C)(O)C2=O [Berkeleyone A (12), Berkeleyone A]
caspase-1 % inhibition (caspase-1): 68% | IC50 [2]: 2.7 µM

C=C1[C@@]2(C)C[C@@H]3[C@](C)(CC=C4C(C)(C)OC(=O)CC[C@]43C)[C@]1(C(=O)OC)C(=O)[C@@](C)(O)C2=O [Berkeleyone B (13), Berkeleyone B]
caspase-1 % inhibition (caspase-1): 100% | IC50 [2]: 3.7 µM

C=C(C)C1=CC[C@@]2(C)[C@@H](C[C@]3(C)C(=C)[C@@]2(C(=O)OC)C(=O)[C@@](C)(O)C3=O)[C@]1(C)CCC(=O)O [Berkeleyone C (14), Berkeleyone C]
caspase-1 % inhibition (caspase-1): 0% | IC50 [2]: 37.8 µM

C=C1[C@@]2(C)C[C@H]3[C@@]4(C)C(=CC[C@]3(C)[C@]1(C(=O)OC)C(=O)[C@@](C)(O)C2=O)C(C)(C)C(=O)C[C@H]4O [Berkeleytrione (9), berkeleytrione]
IC50 [1]: 180000 nM

CCCCC[C@@H]1Cc2cc(O)c(C(=O)O)c3c2[C@H](C[C@]2(OC[C@H](CC(=O)C(C)(CC)C(=O)OC)[C@H]2C)O3)O1 (stereo partly drawn) [Berkelic acid (1), berkelic acid]
IC50 (caspase-1): 98 µM | IC50 [1]: 1870 nM | activity in the NCI-DTP60 against OVCAR-3 (OVCAR-3): active | GI50 (OVCAR-3; read-out: GI50 NCI-DTP: OVCAR-3, NCI-DTP 60): 91 nM

COc1cc(OC)c2c(c1)C(=O)O[C@H]2c1coc(C)cc1=O [Penisimplicissimum (30), penisimplicissin]
leukemia HL-60 log10 GI50 (leukemia HL-60): leukemia HL-60: log10 GI50 (−5.83) | leukemia CCRFCEM log10 GI50 (leukemia CCRFCEM): leukemia CCRFCEM: log10 GI50 (−6.70) | Caspase-1 IC100 (caspase-1): Caspase-1: 100 μg/mL

C=C1[C@@]2(C)C[C@H]3[C@]4(C)CCC(=O)OC(C)(C)[C@@H]4CC[C@]3(C)[C@]1(C(=O)OC)C(=O)[C@@](C)(O)C2=O [Preaustinoid A1(11), Preaustinoid A1]
caspase-1 % inhibition (caspase-1): 77% | IC50 [2]: 34.3 µM

C=C1[C@@]2(C)C[C@H]3[C@]4(C)CCC(=O)C(C)(C)[C@H]4CC[C@]3(C)[C@]1(C(=O)OC)C(=O)[C@@](C)(O)C2=O [Preaustinoid A (10), preaustinoid A]
caspase-1 inhibition (caspase-1): inhibited caspase-1 activity | caspase-1 % inhibition (caspase-1): 97% | IC50 [2]: 15.5 µM

C/C=C/c1cc(=O)c([C@@H]2OC(=O)c3cc(OC)cc(OC)c32)co1 [Vermistatin (28), vermistatin]
caspase-1 inhibition (caspase-1; [9]): not inhibitory

C[C@@H]1O[C@@H]2OC(=O)[C@]3(C)C[C@@H]4[C@](C)(C(=O)C=C5C(=CC(=O)OC5(C)C)[C@@]45CO5)[C@H](C1=O)[C@H]23 [berkeleyacetal C (19), berkeleyacetal C]
growth inhibition of NCI H460 [4]: inhibited the growth | caspase-1 inhibition, concentration range (caspase-1): micromolar range | MMP-3 inhibition, concentration range [1]: micromolar range | growth inhibition of all leukemia cell lines (all leukemia cell lines): inhibited the growth

COC(=O)[C@]12C(=O)[C@H](C)O[C@@H]3OC(=O)[C@](C)(C[C@H]4C(C)=C5CC(=O)OC(C)(C)C5=CC[C@@]41C)[C@@H]32 [berkeleyacetals A (17), berkeleyacetal A]
caspase-1 inhibition, concentration range (caspase-1): mM range | MMP-3 inhibition, concentration range [1]: mM range

C/C=C(\C)C(=O)O[C@H]1C=CC(=O)O[C@H]1/C=C\C(=O)C(C)O (stereo partly drawn) [compound 33, Phomopsolide A]
IC50 (HeLaS3 [5]): 5 µM | IC50 (UMUC3 [6]): 6.5 µM | IC50 [1]: 100000 nM | IC50 (UMUC3 [7]): 4.8 µM | IC50 (HeLaS3 [8]): 6.3 µM

C/C=C(\C)C(=O)O[C@H]1C=CC(=O)O[C@H]1/C=C/[C@H](O)[C@H](C)O [compound 34, Phomopsolide B]
IC50 (UMUC3 [7]): 6.1 µM

C/C=C(\C)C(=O)O[C@H]1C=CC(=O)O[C@H]1/C=C/C(=O)[C@H](C)O [compound 35, Phomopsolide C]
IC50 (HeLaS3 [5]): 2.7 µM | IC50 (UMUC3 [6]): 2.2 µM | IC50 (H3255): 2.6 µM | IC50 (Y79): 1.4 µM | IC50 (UMUC3 [7]): 1.4 µM | IC50 (HeLaS3 [8]): 3.6 µM

C/C=C(\C)C(=O)O[C@H]1C=CC(=O)O[C@H]1CCC(=O)[C@H](C)O [compound 36, Phomopsolide E]
IC50 (HeLaS3 [5]): 7.3 µM | IC50 (UMUC3 [7]): 6.6 µM

CCCCCCCCCC(=O)[C@@]12O[C@@]13C1=COC(C[C@H](C)O)=CC1=CC(=O)[C@]3(C)OC2=O [compound 45, berkchaetoazaphilone B]
caspase-1 inhibition (caspase-1): strongest caspase-1 inhibitor

CCCc1cc(=O)c([C@@H]2OC(=O)c3cc(OC)cc(OC)c32)co1 [dihydrovermistatin (29), dihydrovermistatin]
caspase-1 inhibition (caspase-1; [9]): not inhibitory

Berkebisabolane A [Berkebisabolane A (4)]
IC50 (caspase-1): 23 µM | IC50 [1]: 280 nM

Berkebisabolane B [Berkebisabolane B (5)]
IC50 (caspase-1): 23 µM | IC50 [1]: 315 nM

Berkebisabolane C [Berkebisabolane C (6)]
IC50 (caspase-1): 23 µM | IC50 [1]: 340 nM

Berkedrimane A [Berkedrimane A (31)]
caspase-1 IC50 (caspase-1): 60 µg/mL | inhibition of cytokine production in induced inflammasome assay [2]: completely inhibited

phompyrone [compound 38]
IC50 [1]: > 100000 nM
